The molecule `Cl.O=C(N[C@H]1CN2CCC1CC2)c1ccc2scnc2c1` registered a melting point of 170 to 180 °C.
As for `Cl.O=C(N[C@@H]1CN2CCC1CC2)c1ccc2scnc2c1`, the figure is 166 to 176 °C; as for `Cl.O=C(N[C@H]1CN2CCC1CC2)c1ccc2ncsc2c1`, 285 °C (dec.).
As for `Cl.O=C(N[C@@H]1CN2CCC1CC2)c1cccc2cn[nH]c12`, the figure is 180 to 188 °C.

For orientation: melting point means the temperature of the solid-liquid transition.

The values are drawn from patent publication US8252811B2, “Indazoles, benzothiazoles, and benzoisothiazoles, and preparation and uses thereof” (Memory Pharmaceuticals Corporation, priority 2002, dated 2012).
